Reference: PubChem BioAssay AID242 (DTP/NCI, 2004)
Values joined by “and” are separate entries in the source; they are usually repeats but may differ in a detail not shown here. Identical values can stand only once. Toxic doses and inconclusive results are not listed.

Tested on: BDF1 mice, Lymphoma 8 ip, survival T/C
Assay: NCI In Vivo Anticancer Drug Screen. Data for tumor model Lymphoma 8 (intraperitoneal) in B6D2F1 (BDF1) mice
Details: higher = longer survival
Experimental: The antitumor activity of compounds was measured in mice bearing transplantable tumors. Survival or tumor size were measured and the results are expressed as the measurement made in the treated group (T) divided by the measurement made in the vehicle treated control group (C). The tumor model used in this assay is Lymphoma 8 (intraperitoneal) in B6D2F1 (BDF1) mice

[1] = endpoint: survival time, mean or median, dose: 50.0 mg/kg/injection, schedule: Q01DX010 (ip), vehicle: saline
[2] = endpoint: survival time, mean or median, dose: 100.0 mg/kg/injection, schedule: Q01DX010 (ip), vehicle: saline
[3] = endpoint: survival time, mean or median, dose: 200.0 mg/kg/injection, schedule: Q01DX010 (ip), vehicle: saline
[4] = endpoint: survival time, mean or median, dose: 12.5 mg/kg/injection, schedule: Q01DX015 (ip), vehicle: carboxymethylcellulose (CMC)
[5] = endpoint: survival time, mean or median, dose: 25.0 mg/kg/injection, schedule: Q01DX015 (ip), vehicle: carboxymethylcellulose (CMC)
[6] = endpoint: survival time, mean or median, dose: 100.0 mg/kg/injection, schedule: Q01DX015 (ip), vehicle: carboxymethylcellulose (CMC)
[7] = endpoint: survival time, mean or median, dose: 5.0 mg/kg/injection, schedule: Q01DX010 (ip), vehicle: saline
[8] = endpoint: survival time, mean or median, dose: 10.0 mg/kg/injection, schedule: Q01DX010 (ip), vehicle: saline
[9] = endpoint: survival time, mean or median, dose: 20.0 mg/kg/injection, schedule: Q01DX010 (ip), vehicle: saline
[10] = endpoint: survival time, mean or median, dose: 50.0 mg/kg/injection, schedule: Q01DX015 (ip), vehicle: carboxymethylcellulose (CMC)
[11] = endpoint: survival time, mean or median, dose: 31.3 mg/kg/injection, schedule: Q01DX010 (ip), vehicle: saline
[12] = endpoint: survival time, mean or median, dose: 62.5 mg/kg/injection, schedule: Q01DX010 (ip), vehicle: saline
[13] = endpoint: survival time, mean or median, dose: 62.5 mg/kg/injection, schedule: Q01DX015 (ip), vehicle: carboxymethylcellulose (CMC)
[14] = endpoint: survival time, mean or median, dose: 125.0 mg/kg/injection, schedule: Q01DX015 (ip), vehicle: carboxymethylcellulose (CMC)

Compound: COc1ccc(C2NCCS2)cc1 (stereo not drawn)
- T/C [1]: 103 % of control
- T/C [2]: 100 % of control
- T/C [3]: 106 % of control
- T/C (endpoint: survival time, mean or median, dose: 400.0 mg/kg/injection, schedule: Q01DX010 (ip), vehicle: saline): 100 % of control

Compound: Nc1nc(=S)c2[nH]cnc2[nH]1
- T/C (endpoint: survival time, mean or median, dose: 1.25 mg/kg/injection, schedule: Q01DX010 (ip), vehicle: other): 120 % of control
- T/C (endpoint: survival time, mean or median, dose: 5.0 mg/kg/injection, schedule: Q01DX010 (ip), vehicle: other): 115 % of control
- T/C (endpoint: survival time, mean or median, dose: 10.0 mg/kg/injection, schedule: Q01DX010 (ip), vehicle: other): 110 % of control

Compound: O=C(O)CCCc1ccc(N(CCCl)CCCl)cc1
- T/C (endpoint: survival time, mean or median, dose: 3.13 mg/kg/injection, schedule: Q01DX010 (ip), vehicle: saline): 100 % of control and 104 % of control
- T/C (endpoint: survival time, mean or median, dose: 6.25 mg/kg/injection, schedule: Q01DX010 (ip), vehicle: saline): 104 % of control and 116 % of control
- T/C (endpoint: survival time, mean or median, dose: 12.5 mg/kg/injection, schedule: Q01DX010 (ip), vehicle: saline): 104 % of control

Compound: Nc1nc(SCc2ccccn2)c2[nH]cnc2n1
- T/C [4]: 98 % of control
- T/C [5]: 96 % of control
- T/C [6]: 104 % of control

Compound: C1CN1c1nc(N2CC2)nc(N2CC2)n1
- T/C (endpoint: survival time, mean or median, dose: 0.13 mg/kg/injection, schedule: Q01DX010 (ip), vehicle: saline): 91 % of control and 100 % of control
- T/C (endpoint: survival time, mean or median, dose: 0.25 mg/kg/injection, schedule: Q01DX010 (ip), vehicle: saline): 100 % of control and 104 % of control
- T/C (endpoint: survival time, mean or median, dose: 0.5 mg/kg/injection, schedule: Q01DX010 (ip), vehicle: saline): 166 % of control
- T/C (endpoint: survival time, mean or median, dose: 1.0 mg/kg/injection, schedule: Q01DX010 (ip), vehicle: saline): 87 % of control

Compound: Cc1cc(N(CCCl)CCCl)ccc1N=Nc1ccccc1C(=O)O
- T/C [7]: 91 % of control and 107 % of control
- T/C [8]: 108 % of control and 110 % of control
- T/C [9]: 108 % of control

Compound: CC(=O)OCC1OC(n2cnc3c(=S)nc(N)[nH]c32)C(OC(C)=O)C1OC(C)=O (stereo not drawn)
- T/C (endpoint: survival time, mean or median, dose: 12.5 mg/kg/injection, schedule: Q01DX015 (ip), vehicle: other): 106 % of control
- T/C (endpoint: survival time, mean or median, dose: 25.0 mg/kg/injection, schedule: Q01DX015 (ip), vehicle: other): 107 % of control
- T/C (endpoint: survival time, mean or median, dose: 50.0 mg/kg/injection, schedule: Q01DX015 (ip), vehicle: other): 97 % of control

Compound: COc1ccc(C[n+]2cc([O-])on2)cc1
- T/C [4]: 99 % of control
- T/C [5]: 106 % of control
- T/C [10]: 100 % of control
- T/C [6]: 113 % of control

Compound: CCCSc1ncnc2nc[nH]c12
- T/C [11]: 100 % of control and 113 % of control
- T/C [12]: 95 % of control and 100 % of control
- T/C (endpoint: survival time, mean or median, dose: 125.0 mg/kg/injection, schedule: Q01DX010 (ip), vehicle: saline): 95 % of control and 104 % of control
- T/C (endpoint: survival time, mean or median, dose: 250.0 mg/kg/injection, schedule: Q01DX010 (ip), vehicle: saline): 86 % of control

Compound: O=c1[nH]c(=O)n(C2CC(O)C(CO)O2)cc1F (stereo not drawn)
- T/C [8]: 103 % of control
- T/C [9]: 100 % of control
- T/C (endpoint: survival time, mean or median, dose: 40.0 mg/kg/injection, schedule: Q01DX010 (ip), vehicle: saline): 114 % of control
- T/C (endpoint: survival time, mean or median, dose: 80.0 mg/kg/injection, schedule: Q01DX010 (ip), vehicle: saline): 96 % of control

Compound: CCn1cnc2c(=S)nc[nH]c21
- T/C (endpoint: survival time, mean or median, dose: 15.6 mg/kg/injection, schedule: Q01DX010 (ip), vehicle: saline): 91 % of control and 100 % of control
- T/C [11]: 100 % of control
- T/C [12]: 92 % of control and 100 % of control

Compound: Cc1cc2nc3c(=O)[nH]c(=O)nc-3n(CC(O)C(O)C(O)C(O)CO)c2cc1C (stereo not drawn)
- T/C [10]: 90 % of control
- T/C (endpoint: survival time, mean or median, dose: 200.0 mg/kg/injection, schedule: Q01DX015 (ip), vehicle: carboxymethylcellulose (CMC)): 87 % of control

Compound: CCN(CC)CCNc1ccc(C)c2sc3ccccc3c(=O)c12
- T/C [1]: 122 % of control
- T/C [2]: 109 % of control

Compound: C[C@@H]1C[C@H]2CC[C@H](O2)[C@H](C)C(=O)O[C@@H](C)C[C@@H]2CC[C@@H](O2)[C@@H](C)C(=O)O[C@H](C)C[C@H]2CC[C@H](O2)[C@H](C)C(=O)O[C@@H](C)C[C@@H]2CC[C@@H](O2)[C@@H](C)C(=O)O1
- T/C (endpoint: survival time, mean or median, dose: 45.0 mg/kg/injection, schedule: Q01DX015 (ip), vehicle: other): 102 % of control
- T/C (endpoint: survival time, mean or median, dose: 90.0 mg/kg/injection, schedule: Q01DX015 (ip), vehicle: other): 94 % of control
- T/C (endpoint: survival time, mean or median, dose: 360.0 mg/kg/injection, schedule: Q01DX015 (ip), vehicle: other): 88 % of control

Compound: CN(C)[C@@H]1C(=O)C(C(N)=O)=C(O)[C@@]2(O)C(=O)C3=C(O)c4c(O)cccc4C[C@H]3C[C@@H]12
- T/C (endpoint: survival time, mean or median, dose: 15.0 mg/kg/injection, schedule: Q01DX015 (ip), vehicle: alkali diluted with saline): 93 % of control
- T/C (endpoint: survival time, mean or median, dose: 30.0 mg/kg/injection, schedule: Q01DX015 (ip), vehicle: alkali diluted with saline): 89 % of control

Compound: N#[N+]c1cnc([O-])[nH]c1=O
- T/C (endpoint: survival time, mean or median, dose: 1.25 mg/kg/injection, schedule: Q01DX010 (ip), vehicle: saline): 107 % of control
- T/C (endpoint: survival time, mean or median, dose: 2.5 mg/kg/injection, schedule: Q01DX010 (ip), vehicle: saline): 103 % of control
- T/C [7]: 121 % of control
- T/C [8]: 121 % of control

Compound: CC(Cl)CN(Cc1cc(O)c(CN(CC(C)Cl)CC(C)Cl)cc1O)CC(C)Cl (stereo not drawn)
- T/C [13]: 100 % of control
- T/C [14]: 95 % of control
- T/C (endpoint: survival time, mean or median, dose: 250.0 mg/kg/injection, schedule: Q01DX015 (ip), vehicle: carboxymethylcellulose (CMC)): 94 % of control
- T/C (endpoint: survival time, mean or median, dose: 500.0 mg/kg/injection, schedule: Q01DX015 (ip), vehicle: carboxymethylcellulose (CMC)): 88 % of control and 91 % of control
- T/C (endpoint: survival time, mean or median, dose: 750.0 mg/kg/injection, schedule: Q01DX015 (ip), vehicle: carboxymethylcellulose (CMC)): 90 % of control
- T/C (endpoint: survival time, mean or median, dose: 1000.0 mg/kg/injection, schedule: Q01DX015 (ip), vehicle: carboxymethylcellulose (CMC)): 90 % of control

Compound: Nc1nc(SCc2ccccc2)c2[nH]cnc2n1
- T/C (endpoint: survival time, mean or median, dose: 8.0 mg/kg/injection, schedule: Q01DX010 (ip), vehicle: saline): 91 % of control and 107 % of control
- T/C (endpoint: survival time, mean or median, dose: 16.0 mg/kg/injection, schedule: Q01DX010 (ip), vehicle: saline): 100 % of control and 103 % of control
- T/C (endpoint: survival time, mean or median, dose: 32.0 mg/kg/injection, schedule: Q01DX010 (ip), vehicle: saline): 100 % of control and 103 % of control
- T/C (endpoint: survival time, mean or median, dose: 64.0 mg/kg/injection, schedule: Q01DX010 (ip), vehicle: saline): 91 % of control

Compound: Nc1c(Br)cc2c(c1Br)Cc1cc([N+](=O)[O-])ccc1-2
- T/C [13]: 88 % of control
- T/C [14]: 87 % of control

Compound: O=c1[nH]cc(F)c(=O)[nH]1
- T/C (endpoint: median survival time, dose: 28.8 mg/kg/injection, schedule: Q04DX003 (ip), vehicle: saline): 155 % of control
- T/C (endpoint: median survival time, dose: 48.0 mg/kg/injection, schedule: Q04DX003 (ip), vehicle: saline): 277 % of control
- T/C (endpoint: median survival time, dose: 80.0 mg/kg/injection, schedule: Q04DX003 (ip), vehicle: saline): 331 % of control
- T/C [7]: 108 % of control and 114 % of control
- T/C [9]: 153 % of control and 158 % of control

Compound: N[C@H](C(=O)O)[C@@H]1CC(Cl)=NO1
- T/C (endpoint: median survival time, dose: 0.38 mg/kg/injection, schedule: Q01DX009 (ip), vehicle: saline): 92 % of control
- T/C (endpoint: median survival time, dose: 0.75 mg/kg/injection, schedule: Q01DX009 (ip), vehicle: saline): 78 % of control
- T/C (endpoint: median survival time, dose: 1.5 mg/kg/injection, schedule: Q01DX009 (ip), vehicle: saline): 69 % of control
- T/C (endpoint: median survival time, dose: 3.0 mg/kg/injection, schedule: Q01DX009 (ip), vehicle: saline): 74 % of control

Compound: Nc1nc2n[nH]nc2c(=O)[nH]1
- T/C (endpoint: survival time, mean or median, dose: 25.0 mg/kg/injection, schedule: Q01DX010 (ip), vehicle: alkali diluted with saline): 108 % of control
- T/C (endpoint: survival time, mean or median, dose: 50.0 mg/kg/injection, schedule: Q01DX010 (ip), vehicle: alkali diluted with saline): 104 % of control and 112 % of control
- T/C (endpoint: survival time, mean or median, dose: 100.0 mg/kg/injection, schedule: Q01DX010 (ip), vehicle: alkali diluted with saline): 112 % of control and 116 % of control
- T/C (endpoint: survival time, mean or median, dose: 200.0 mg/kg/injection, schedule: Q01DX010 (ip), vehicle: alkali diluted with saline): 116 % of control

Compound: COc1ccccc1CNCCO
- T/C [1]: 103 % of control
- T/C [2]: 103 % of control
- T/C [3]: 93 % of control

Compound: CN(C)c1nc(N(C)C)nc(N(C)C)n1
- T/C (endpoint: survival time, mean or median, dose: 18.8 mg/kg/injection, schedule: Q01DX010 (ip), vehicle: saline): 104 % of control and 122 % of control
- T/C (endpoint: survival time, mean or median, dose: 37.5 mg/kg/injection, schedule: Q01DX010 (ip), vehicle: saline): 95 % of control and 113 % of control
- T/C (endpoint: survival time, mean or median, dose: 75.0 mg/kg/injection, schedule: Q01DX010 (ip), vehicle: saline): 100 % of control
- T/C (endpoint: survival time, mean or median, dose: 150.0 mg/kg/injection, schedule: Q01DX010 (ip), vehicle: saline): 100 % of control
